Structures can show the parent of a compound that is named as a salt.
System: platelet aggregation induced by ADP in platelet rich plasma (PRP) prepared from human blood
Assay: Effect on platelet aggregation induced by adenosine diphosphate (ADP)
Type: cell-based
Conditions: 2 min, 3×10^8 platelets/ml, drug stirred for 2 minutes at 37° C., ADP final 2.5 μM, aggregometer
Description: Test 1: Effect on Platelet Aggregation Induced by Adenosine Diphosphate (ADP)
Platelet rich plasma (PRP) which contains 3×10^8 platelets/ml was prepared from human blood. To the 225 μl of PRP, 25 μl of drug solution* was added, and then stirred for 2 minutes at 37° C. To the solution 5 μl of ADP (final 2.5 μM) was added as an aggregation inducer. Aggregation was measured by using an aggregometer (NBS HEMA-TRACER 801). Activity of inhibitor (test compound) was expressed as IC50 value i.e. dose required for […] inhibition of platelet aggregation.
Drug solution* - - - Test compound was dissolved in water.

Compound: O=C(O)C[C@@H](CCc1ccccc1)NC(=O)[C@@H]1CCCN(C(=O)/C=C/C2CCNCC2)C1 [Example 25, N-[(R)-1-[3-(4-Piperidyl)-(E)-acryloyl]-3-piperidylcarbonyl]-3(R)-phenethyl-β-alanine Hydrochloride]
- IC50: 85 nM
